Data reported in ChEMBL document CHEMBL4043164, “Design, synthesis and biological evaluation of novel antitumor spirotetrahydrothiopyran-oxindole derivatives as potent p53-MDM2 inhibitors” (Bioorg Med Chem, 2017).

What was measured:
HCT-116 = assay: Cytotoxicity against human HCT116 cells assessed as reduction in cell viability incubated for 24 hrs by CCK8 assay; conditions: HCT-116, 24 h
A549 = assay: Cytotoxicity against human A549 cells assessed as reduction in cell viability incubated for 24 hrs by CCK8 assay; conditions: A549, 24 h
MCF7 = assay: Cytotoxicity against human MCF7 cells assessed as reduction in cell viability incubated for 24 hrs by CCK8 assay; conditions: MCF7, 24 h

| Structure (SMILES) | IC50 (HCT-116) | IC50 (A549) | IC50 (MCF7) |
| --- | --- | --- | --- |
| COc1ccc(C2=N[C@H](c3ccc(Cl)cc3)[C@H](c3ccc(Cl)cc3)N2C(=O)N2CCNC(=O)C2)c(OC(C)C)c1 | 28.4 µM | 10 µM | 14.9 µM |
| COc1ccc(N2C[C@H]3[C@@H](CS[C@]4(C(=O)Nc5cccc(Br)c54)[C@@H]3c3ccc(Br)cc3)CC2=O)cc1 | 8.3 µM | 4.3 µM | 3 µM |
| O=C1C[C@@H]2CS[C@]3(C(=O)Nc4cccc(Br)c43)[C@H](c3ccc(Br)cc3)[C@H]2CN1c1ccccc1 | 8.6 µM | 4.2 µM | 4 µM |
| COC(=O)C[C@@H]1CS[C@]2(C(=O)Nc3cccc(Br)c32)[C@H](c2ccc(Br)cc2)[C@H]1CNc1ccccc1F | 10.5 µM | 4.2 µM | 3.6 µM |
| O=C1Nc2cccc(Br)c2[C@@]12SC[C@@H](CCO)[C@H](CO)[C@H]2c1ccc(Br)cc1 | 19.1 µM | 16.5 µM | 13.5 µM |
| COC(=O)C[C@@H]1CS[C@]2(C(=O)Nc3cccc(Br)c32)[C@H](c2ccc(Br)cc2)[C@H]1CNc1cccc(F)c1 | 8.6 µM | 3.5 µM | 2.8 µM |
| CCOc1ccc(N2C[C@H]3[C@@H](CS[C@]4(C(=O)Nc5cccc(Br)c54)[C@@H]3c3ccc(Br)cc3)CC2=O)cc1 | 10.4 µM | 2.6 µM | 3.2 µM |
| O=C1C[C@@H]2CS[C@]3(C(=O)Nc4cccc(Br)c43)[C@H](c3ccc(Br)cc3)[C@H]2CN1c1cccc(F)c1 | 9.5 µM | 3.5 µM | 3.8 µM |
| CN1CCN(c2ccc(N3C[C@H]4[C@@H](CS[C@]5(C(=O)Nc6cccc(Br)c65)[C@@H]4c4ccc(Br)cc4)CC3=O)cc2)CC1 | 8.8 µM | 6.3 µM | 5.9 µM |
| O=C1C[C@@H]2CS[C@]3(C(=O)Nc4cccc(Br)c43)[C@H](c3ccc(Br)cc3)[C@H]2CN1c1ccc(N2CCOCC2)cc1 | 4.3 µM | 2.6 µM | 2.4 µM |
| Cc1ccc(N2C[C@H]3[C@@H](CS[C@]4(C(=O)Nc5cccc(Br)c54)[C@@H]3c3ccc(Br)cc3)CC2=O)cc1 | 5.1 µM | 4.6 µM | 3 µM |
| O=C1C[C@@H]2CS[C@]3(C(=O)Nc4cccc(Br)c43)[C@H](c3ccc(Br)cc3)[C@H]2CN1c1ccc(Cl)cc1 | 8 µM | 4.8 µM | 4.2 µM |
| O=C1C[C@@H]2CS[C@]3(C(=O)Nc4cccc(Br)c43)[C@H](c3ccc(Br)cc3)[C@H]2CN1c1ccc(F)cc1F | 9.8 µM | 2.5 µM | 4.4 µM |
| COC(=O)C[C@@H]1CS[C@]2(C(=O)Nc3cccc(Br)c32)[C@H](c2ccc(Br)cc2)[C@H]1C=O | 17.3 µM | 11.2 µM | 8.5 µM |
| O=C1C[C@@H]2CS[C@]3(C(=O)Nc4cccc(Br)c43)[C@H](c3ccc(Br)cc3)[C@H]2CN1c1ccc(F)cc1 | 10.5 µM | 4.4 µM | 4 µM |
| O=C1C[C@@H]2CS[C@]3(C(=O)Nc4cccc(Br)c43)[C@H](c3ccc(Br)cc3)[C@H]2CN1c1ccccc1F | 9.3 µM | 2.3 µM | 4.6 µM |
| O=C1C[C@@H]2CS[C@]3(C(=O)Nc4cccc(Br)c43)[C@H](c3ccc(Br)cc3)[C@H]2CN1c1ccc(-c2ccccc2)cc1 | 5.6 µM | 4.1 µM | 6.9 µM |
| CCN(CC)c1ccc(N2C[C@H]3[C@@H](CS[C@]4(C(=O)Nc5cccc(Br)c54)[C@@H]3c3ccc(Br)cc3)CC2=O)cc1 | 2.4 µM | 2.9 µM | 1.8 µM |
| CCOc1cccc(N2C[C@H]3[C@@H](CS[C@]4(C(=O)Nc5cccc(Br)c54)[C@@H]3c3ccc(Br)cc3)CC2=O)c1 | 8.5 µM | 4.5 µM | 3.6 µM |
